Source: ChEMBL document CHEMBL6134825, “Mechanisms and therapeutic strategies for NLRP3 degradation via post-translational modifications in ubiquitin-proteasome and autophagy lysosomal pathway” (Eur J Med Chem, 2025)

Columns and labels:
[1] = Toxicity in ip dosed rat assessed as lethal dose; format: organism-based; details: in vivo
[2] = Toxicity in iv dosed rat assessed as lethal dose; format: organism-based; details: in vivo
[3] = AUC(0 to t) in Sprague-Dawley rat at 5 mg/kg, po measured up to 24 hrs by LC-MS/MS analysis; format: ADME, organism-based; details: in vivo
[4] = Acute toxicity in po dosed ICR mouse assessed as lethal dose; format: organism-based; details: in vivo
[5] = Toxicity in rat assessed as lethal dose; details: in vivo
[6] = Oral bioavailability in Sprague-Dawley rat at 5 mg/kg by LC-MS/MA analysis; format: ADME, organism-based; details: in vivo
[7] = AUC(0 to t) in Sprague-Dawley rat at 20 mg/kg, po measured up to 24 hrs by LC-MS/MS analysis; format: ADME, organism-based; details: in vivo
[8] = Oral bioavailability in Sprague-Dawley rat at 20 mg/kg by LC-MS/MS analysis; format: ADME, organism-based; details: in vivo
[9] = AUC(0 to t) in Sprague-Dawley rat at 300 mg/kg, po measured up to 24 hrs by LC-MS/MS analysis; format: ADME, organism-based; details: in vivo
[10] = AUC(0 to t) in Beagle dog at 3.6 mg/kg, po measured for 24 hrs by LC-MS/MS analysis; format: ADME, organism-based, Canis lupus familiaris; details: in vivo
[11] = Oral bioavailability in Beagle dog at 3.6 mg/kgm measured for 24 hrs by LC-MS/MS analysis; format: ADME, organism-based, Canis lupus familiaris; details: in vivo, dose 3.6 mg/kg
[12] = Microsomal metabolic stability in Beagle dog liver microsomes assessed as half life […] by LC-MS/MS analysis; format: ADME, Canis lupus familiaris, Microsome
[13] = Oral bioavailability in human at 2 microg/kg measured for 60 mins by LC-MS/MS analysis; details: in vivo, 0.002 mg/kg
[14] = Metabolic stability in human liver microsome assessed as half life; details: liver microsomes
[15] = AUC(0 to t) in ICR mouse plasma at 2 microg/kg, po measured for 60 mins by LC-MS/MS analysis; details: 0.002 mg/kg
[16] = AUC(0 to t) in ICR mouse plasma at 5 mg/kg, po measured for 60 mins by LC-MS/MS analysis; format: ADME, organism-based
[17] = Oral bioavailability in ICR mouse at 5 mg/kg; format: ADME, organism-based; details: in vivo
[18] = Metabolic stability in rat liver microsomes assessed as half life measured for 60 mins by LC-MS/MS analysis; format: ADME, Microsome

O=c1c(-c2ccc(O)cc2)coc2c([C@@H]3O[C@H](CO)[C@@H](O)[C@H](O)[C@H]3O)c(O)ccc12 [PUERARIN]
LD50 [1]: 1410 mg/kg
LD50 [2]: 634 mg/kg
AUC(0-t) at 24 h [3]: 109 µg·h/mL

COc1cc(/C=C/C(=O)O)ccc1O [FERULATE]
LD50 [4]: 3200 mg/kg

O=c1c(O)c(-c2ccc(O)cc2)oc2cc(O)cc(O)c12 [KAEMPFEROL]
LD50 [5]: 3810 mg/kg
bioavailability [6]: 7%
AUC(0-t) at 24 h [7]: 234 µg·h/mL
bioavailability [8]: 2%

O=C1c2cccc(O)c2C(=O)c2c(O)cc(CO)cc21 [ALOE-EMODIN]
AUC(0-t) at 24 h [9]: 42.8 µg·h/mL

C[C@@H]1C(=O)O[C@H]2[C@@H](O)C34[C@H]5C[C@@H](C(C)(C)C)C36[C@@H](OC(=O)[C@@H]6O)O[C@@]4(C(=O)O5)[C@@]12O (stereo partly drawn)
AUC(0-t) at 24 h [10]: 356 µg·h/mL
bioavailability [11]: 17%
half-life [12]: 1 h

Cc1cccc([C@H](C)c2cnc[nH]2)c1C [DEXMEDETOMIDINE]
bioavailability at 1 h [13]: 15.6%
half-life [14]: 2 h
AUC(0-t) at 1 h [15]: 0.45 µg·h/mL

O=C(Nc1c2c(cc3c1CCC3)CCC2)NS(=O)(=O)c1ccc(OCCOCCOCCOCCN2C(=O)/C(=C\c3cc(Br)c(O)c(Br)c3)c3cc(I)ccc32)cc1
AUC(0-t) at 1 h [16]: 551 µg·h/mL
bioavailability [17]: 19%

Cc1cnc(-c2ccccc2C(C)C)nc1NCc1ccc(-n2ccnn2)cc1
half-life [18]: 0.2 h
